The values that follow come from US4971967A, “Quinolinecarboxylic acid derivatives, antibacterial compositions and use” (Kanebo Ltd, priority 1989, dated 1990).

Structures are written as SMILES. In brackets after ≈: the same amount, converted by molar mass. Where a name gives a salt, the structure may show the parent alone.

What all share (assay type): cell-based
Assay [1] deals with Klebsiella pneumoniae PCI-602. Put plainly: Antibacterial activity (MIC), Klebsiella pneumoniae PCI-602. The following applies: PCI602; Klebsiella pneumoniae PCI-602, Gram -; read-out: Minimum inhibitory concentration (MIC). On the procedure: (§1) The compounds of the present invention (A, C, D, E, F, G, H, I, J, L, O and P) and the known compound (X) as reference were dissolved in 0.1 N aqueous sodium hydroxide to prepare a solution of 5000 μg/ml in concentration. The compounds of the present invention (B, K, M and N) and the known compound (Y) were dissolved in sterilized distilled water to prepare a solution of 5000 μg/ml in concentration. Each solution was diluted with sterilized distilled water to prepare a standard solution with a concentration of each test compound: 1000 μg/ml. The test was carried out by a method as appointed by Japan Society of Chemotherapy [cf. Chemotherapy, 29, 76-79 (1981)(TOKYO)].

Assay [2] has as its system Enterobacter aerogenes ATCC 13048. The assay is described as follows: Antibacterial activity (MIC), Enterobacter aerogenes ATCC 13048. The following applies: Klebsiella aerogenes, ATCC13048; Enterobacter aerogenes ATCC 13048, Gram -; read-out: Minimum inhibitory concentration (MIC). The procedure:
as §1

Assay [3] deals with Citrobacter freundii NIHJ 10018-68. Put plainly: Antibacterial activity (MIC), Citrobacter freundii NIHJ 10018-68. Particulars: for MIC: Citrobacter freundii, NIHJ10018, Citrobacter freundii NIHJ 10018-68, Gram -, read-out: Minimum inhibitory concentration (MIC). The procedure: as §1
The subject of assay [4] is Salmonella typhimurium IID 971. The assay is described as follows: Antibacterial activity (MIC), Salmonella typhimurium IID 971. Particulars: Salmonella enterica; Salmonella typhimurium IID 971, Gram -; read-out: Minimum inhibitory concentration (MIC). The procedure: as §1
The test system of assay [5] is Serratia marcescens IAM 1184. The assay is described as follows: Antibacterial activity (MIC), Serratia marcescens IAM 1184. Particulars: for MIC: Serratia marcescens, IAM1184, Serratia marcescens IAM 1184, Gram -, read-out: Minimum inhibitory concentration (MIC). The procedure: as §1
In assay [6] the test system is Staphylococcus aureus FDA 209P JC-1. Put plainly: Antibacterial activity (MIC), S. aureus FDA 209P JC-1. The following applies: FDA209P; Staphylococcus aureus FDA 209P JC-1, Gram +; read-out: Minimum inhibitory concentration (MIC). The procedure:
as §1

Assay [7] deals with Staphylococcus epidermidis IAM-1296. Put plainly: Antibacterial activity (MIC), S. epidermidis IAM-1296. Particulars: for MIC: Staphylococcus epidermidis, IAM1296, Staphylococcus epidermidis IAM-1296, Gram +, read-out: Minimum inhibitory concentration (MIC). On the procedure: as §1
Assay [8] concerns Morganella morganii IFO 3848. The assay is described as follows: Antibacterial activity (MIC), Morganella morganii IFO 3848. The following applies: for MIC: Morganella morganii, IFO3848, Morganella morganii IFO 3848, Gram -, read-out: Minimum inhibitory concentration (MIC). The procedure:
as §1

For the next assay, the system named is Escherichia coli KC-14. The assay is described as follows: Antibacterial activity (MIC), E. coli KC-14. The following applies: KC14; Escherichia coli KC-14, Gram -; read-out: Minimum inhibitory concentration (MIC). The procedure:
as §1

Assay [9] has as its system Micrococcus luteus ATCC 9341. Put plainly: Antibacterial activity (MIC), Micrococcus luteus ATCC 9341. Particulars: ATCC9341; Micrococcus luteus ATCC 9341, Gram +; read-out: Minimum inhibitory concentration (MIC). On the procedure: as §1
Assay [10] has as its system Escherichia coli NIHJ JC-2. Put plainly: Antibacterial activity (MIC), E. coli NIHJ JC-2. Particulars: NIHJJC2; Escherichia coli NIHJ JC-2, Gram -; read-out: Minimum inhibitory concentration (MIC). On the procedure:
as §1

In assay [11] the test system is Pseudomonas aeruginosa IFO 3445. Put plainly: Antibacterial activity (MIC), P. aeruginosa IFO 3445. The following applies: for MIC: Pseudomonas aeruginosa, IFO3445, Pseudomonas aeruginosa IFO 3445, Gram -, read-out: Minimum inhibitory concentration (MIC). On the procedure: as §1
Assay [12] has as its system Bacillus subtilis ATCC 6633. The assay is described as follows: Antibacterial activity (MIC), Bacillus subtilis ATCC 6633. The following applies: for MIC: Bacillus subtilis, ATCC6633, Bacillus subtilis ATCC 6633, Gram +, read-out: Minimum inhibitory concentration (MIC). On the procedure:
as §1

The subject of the next assay is Enterobacter cloacae 963. Put plainly: Antibacterial activity (MIC), Enterobacter cloacae 963. The following applies: for MIC: Enterobacter cloacae, 963, Enterobacter cloacae 963, Gram -, read-out: Minimum inhibitory concentration (MIC). On the procedure:
as §1

In assay [13] the test system is Pseudomonas aeruginosa E-2. The assay is described as follows: Antibacterial activity (MIC), P. aeruginosa E-2. Particulars: E2; Pseudomonas aeruginosa E-2, Gram -; read-out: Minimum inhibitory concentration (MIC). On the procedure:
as §1

A further assay relates to Proteus vulgaris OX-19. Put plainly: Antibacterial activity (MIC), Proteus vulgaris OX-19. The following applies: OX19; Proteus vulgaris OX-19, Gram -; read-out: Minimum inhibitory concentration (MIC). The procedure: as §1
Assay [14] has as its system Pseudomonas aeruginosa NCTC 10490. The assay is described as follows: Antibacterial activity (MIC), P. aeruginosa NCTC 10490. Particulars: for MIC: Pseudomonas aeruginosa, NCTC10490, Pseudomonas aeruginosa NCTC 10490, Gram -, read-out: Minimum inhibitory concentration (MIC). On the procedure: as §1
Assay [15] has as its system Streptococcus faecalis IID 682. Put plainly: Antibacterial activity (MIC), Streptococcus faecalis IID 682. Particulars: Enterococcus faecalis, IID682, Streptococcus faecalis IID 682, Gram +; read-out: Minimum inhibitory concentration (MIC). The procedure:
as §1

Another assay relates to Shigella sonnei EW-33. Put plainly: Antibacterial activity (MIC), Shigella sonnei EW-33. Particulars: for MIC: Shigella sonnei, EW33, Shigella sonnei EW-33, Gram -, read-out: Minimum inhibitory concentration (MIC). The procedure: as §1
The subject of assay [16] is Proteus mirabilis IFO 3849. The assay is described as follows: Antibacterial activity (MIC), Proteus mirabilis IFO 3849. Particulars: IFO3849; Proteus mirabilis IFO 3849, Gram -; read-out: Minimum inhibitory concentration (MIC). The procedure: as §1
For assay [17], the system named is Acinetobacter calcoaceticus AC 54. Put plainly: Antibacterial activity (MIC), Acinetobacter calcoaceticus AC 54. The following applies: AC54; Acinetobacter calcoaceticus AC 54, Gram -; read-out: Minimum inhibitory concentration (MIC). The procedure: as §1
Assay [18] concerns Staphylococcus aureus IID 803. The assay is described as follows: Antibacterial activity (MIC), S. aureus IID 803. Particulars: IID803; Staphylococcus aureus IID 803, Gram +; read-out: Minimum inhibitory concentration (MIC). The procedure: as §1

With `CN1Cc2csc3c(C(=O)O)c(=O)c4cc(F)c(N5CCC(N)C5)c1c4n23` (stereo not drawn) [(H), 9,1-(Methylimino)methano-7-fluoro-8-(3-amino-1-pyrrolidinyl)-5-oxo-5H-thiazolo[3,2-a]quinoline-4-carboxylic acid], the MIC amounted to 0.006 µg/mL (≈ 0.0154 µM) in [1]; 0.05 µg/mL (≈ 0.129 µM) in [2]; 0.1 µg/mL (≈ 0.257 µM) in assay [3]; 0.05 µg/mL (≈ 0.129 µM) in [4]; 0.1 µg/mL (≈ 0.257 µM) in assay [5]; 0.025 µg/mL (≈ 0.0644 µM) in [6]. In addition, the MIC in [7] is 0.05 µg/mL (≈ 0.129 µM); in assay [8], 0.05 µg/mL (≈ 0.129 µM); in the assay on Escherichia coli KC-14, 0.0125 µg/mL (≈ 0.0322 µM); in assay [9], 0.2 µg/mL (≈ 0.515 µM); in assay [10], 0.05 µg/mL (≈ 0.129 µM); in assay [11] it was 0.2 µg/mL (≈ 0.515 µM). For the same compound, the MIC was determined as 0.006 µg/mL (≈ 0.0154 µM) in assay [12]; 0.05 µg/mL (≈ 0.129 µM) in the assay with Enterobacter cloacae 963; 0.39 µg/mL (≈ 1 µM) in assay [13]; 0.0125 µg/mL (≈ 0.0322 µM) in the assay on Proteus vulgaris OX-19; 0.2 µg/mL (≈ 0.515 µM) in assay [14]; 0.05 µg/mL (≈ 0.129 µM) in assay [15]. Further, the MIC with Shigella sonnei EW-33 is 0.05 µg/mL (≈ 0.129 µM); in [16] it was 0.1 µg/mL (≈ 0.257 µM); in assay [17], 0.0125 µg/mL (≈ 0.0322 µM); in assay [18], 0.006 µg/mL (≈ 0.0154 µM).
For the compound `CN1CCN(c2c(F)cc3c(=O)c(C(=O)O)c4scc5n4c3c2N(C)C5)CC1` [Compound (B), 9,1-(Methylimino)methano-7-fluoro-8-(4-methyl-1-piperazinyl)-5-oxo-5H-thiazolo [3,2-a]quinoline-4-carboxylic acid hydrochloride], the “Minimum inhibitory concentration (MIC)” value was determined as 0.39 µg/mL in assay [3] (Citrobacter freundii NIHJ 10018-68, Gram -, hydrochloride); 0.39 µg/mL in [5] (Serratia marcescens IAM 1184, Gram -, hydrochloride); 0.10 µg/mL in assay [7] (Staphylococcus epidermidis IAM-1296, Gram +, hydrochloride); 0.10 µg/mL in assay [8] (Morganella morganii IFO 3848, Gram -, hydrochloride); 0.78 µg/mL in [11] (Pseudomonas aeruginosa IFO 3445, Gram -, hydrochloride); 0.025 µg/mL in assay [12] (Bacillus subtilis ATCC 6633, Gram +, hydrochloride). In addition, the “Minimum inhibitory concentration (MIC)” value is 0.10 µg/mL with Enterobacter cloacae 963 (Enterobacter cloacae 963, Gram -, hydrochloride); 0.39 µg/mL in [14] (Pseudomonas aeruginosa NCTC 10490, Gram -, hydrochloride); 0.05 µg/mL in the assay with Shigella sonnei EW-33 (Shigella sonnei EW-33, Gram -, hydrochloride). Further, in assay [17], the MIC was 0.05 µg/mL.
Turning to `CN1Cc2csc3c(C(=O)O)c(=O)c4cc(F)c(N5CCNCC5)c1c4n23` [Compound (C), 9,1-(Methylimino)methano-7-fluoro-8-(1-piperazinyl)-5-oxo-5H-thiazolo[3,2-a]quinoline-4-carboxylic acid], the MIC in assay [1] was found to be 0.006 µg/mL (≈ 0.0154 µM); in assay [2], 0.05 µg/mL (≈ 0.129 µM); in assay [3], 0.1 µg/mL (≈ 0.257 µM); in assay [4], 0.05 µg/mL (≈ 0.129 µM); in [5], 0.2 µg/mL (≈ 0.515 µM); in assay [6] it was 0.05 µg/mL (≈ 0.129 µM). The MIC in assay [7] is 0.05 µg/mL (≈ 0.129 µM); in assay [8], 0.05 µg/mL (≈ 0.129 µM); with Escherichia coli KC-14, 0.05 µg/mL (≈ 0.129 µM); in assay [9], 0.39 µg/mL (≈ 1 µM); in assay [10], 0.05 µg/mL (≈ 0.129 µM); in assay [11], 0.39 µg/mL (≈ 1 µM). The MIC was found to be 0.006 µg/mL (≈ 0.0154 µM) in assay [12]; 0.05 µg/mL (≈ 0.129 µM) with Enterobacter cloacae 963; 0.39 µg/mL (≈ 1 µM) in assay [13]; 0.006 µg/mL (≈ 0.0154 µM) with Proteus vulgaris OX-19; 0.2 µg/mL (≈ 0.515 µM) in assay [14]; 0.05 µg/mL (≈ 0.129 µM) in [15]. In addition, the MIC in the assay with Shigella sonnei EW-33 is 0.025 µg/mL (≈ 0.0644 µM); in assay [16] it was 0.1 µg/mL (≈ 0.257 µM); in assay [17], 0.025 µg/mL (≈ 0.0644 µM); in assay [18], 0.05 µg/mL (≈ 0.129 µM).
